{"source": "patent US20070128217A1", "about": "(priority 2003, published 2007)", "key": {"[1]": {"test_system": "rabbit serum obtained by immunizing a rabbit with the SARS-CoV strain Frankfurt 1", "assay_type": "binding", "design": "Binding of a rabbit serum to linear peptides / Binding of a rabbit serum to looped peptides / Rabbit serum linear peptides / Rabbit serum looped peptides / Binding of a rabbit serum to linear peptides of protein N of SARS-CoV Urbani (Rabbit serum linear peptides) / Binding of a rabbit serum to looped/cyclic peptides of protein N of SARS-CoV Urbani (Rabbit serum looped peptides): unit not given here"}, "[2]": {"test_system": "control sera (pooled serum of ten healthy LUMC hospital workers; commercial negative donor pooled serum from the Dutch bloodbank)", "assay_type": "binding, human", "design": "Binding of Control serum LUMC to linear peptides / Binding of Control serum Blood-bank to linear peptides / Binding of Control serum LUMC to looped peptides / Binding of Control Serum Blood-Bank to Looped peptides / Binding of Control serum LUMC to linear peptides of the protein M of SARS-CoV Urbani / Binding of Control serum Blood-bank to linear peptides of the protein M of SARS-CoV Urbani / Binding of Control serum LUMC to looped peptides of the protein M of SARS-CoV Urbani / Binding of Control Serum Blood-Bank to Looped peptides of the protein M of SARS-CoV Urbani: unit not given here"}, "[3]": {"test_system": "antibodies in sera from SARS patients (sera 1a, 1b, 2, 6, 37, 62, London, SARS-yellow, SARS-green)", "assay_type": "binding, human", "design": "Binding of serum 6 to linear peptides of protein X1 of SARS-CoV Urbani / Binding of serum 37 to linear peptides of protein X1 of SARS-CoV Urbani / Binding of serum 6 to looped/cyclic peptide (PEPSCAN-ELISA) / Binding of serum 37 to looped/cyclic peptide (PEPSCAN-ELISA) / Binding of serum 37 to looped/cyclic peptides of protein X1 of SARS-CoV Urbani / Binding of serum 6 to linear peptides of protein X2 / Binding of serum 37 to linear peptides of protein X2 / Binding of serum 37 to looped/cyclic peptides of protein X2 of SARS-CoV Urbani / Binding of serum 6 to linear peptides of protein M of SARS-CoV Urbani / Binding of serum 37 to linear peptides of protein M of SARS-CoV Urbani / Binding of serum 6 to looped/cyclic peptides of protein M of SARS-CoV Urbani / Binding of serum 37 to looped/cyclic peptides of protein M of SARS-CoV Urbani / Binding of serum 6 to linear peptides of protein X3 of SARS-CoV Urbani / Binding of serum 37 to linear peptides of protein X3 of SARS-CoV Urbani / Binding of serum 37 to looped/cyclic peptides of protein X3 of SARS-CoV Urbani / Binding of serum 6 to linear peptides of protein X4 of SARS-CoV Urbani / Binding of serum 37 to linear peptides of protein X4 of SARS-CoV Urbani / Binding of serum 37 to looped/cyclic peptides of protein X4 of SARS-CoV Urbani / Binding of serum 6 to linear peptides of protein X5 of SARS-CoV Urbani / Binding of serum 37 to linear peptides of protein X5 of SARS-CoV Urbani / Binding of serum 37 to looped/cyclic peptides of protein X5 of SARS-CoV Urbani / Binding of serum 6 to linear peptides of protein N of SARS-CoV Urbani / Binding of serum 37 to linear peptides of protein N of SARS-CoV Urbani / Binding of serum 6 to linear peptide (PEPSCAN-ELISA) / Binding of serum 1a to looped/cyclic peptides of protein N of SARS-CoV Urbani / Binding of serum 1b to looped/cyclic peptides of protein N of SARS-CoV Urbani / Binding of serum 2 to looped/cyclic peptides of protein N of SARS-CoV Urbani / Binding of serum 6 to looped/cyclic peptides of protein N of SARS-CoV Urbani / Binding of serum 37 to looped/cyclic peptides of protein N of SARS-CoV Urbani / Binding of serum 62 to looped/cyclic peptides of protein N of SARS-CoV Urbani / Binding of serum London to looped/cyclic peptides of protein N of SARS-CoV Urbani / Binding of serum SARS-green to looped/cyclic peptides of protein N of SARS-CoV Urbani: unit not given here"}}}
{"sequence": "QIHTIDGSSGVANPA", "values": [{"measurement": "Binding of a rabbit serum to linear peptides", "setting": "[1]", "value": 0.1}, {"measurement": "Binding of a rabbit serum to looped peptides", "setting": "[1]", "value": 0.3}, {"measurement": "Binding of Control Serum Blood-Bank to Looped peptides", "setting": "[2]", "value": 0.2}, {"measurement": "Binding of Control serum Blood-bank to linear peptides", "setting": "[2]", "value": 0.6}, {"measurement": "Binding of Control serum LUMC to linear peptides", "setting": "[2]", "value": 0.6}, {"measurement": "Binding of Control serum LUMC to looped peptides", "setting": "[2]", "value": 0.4}, {"measurement": "Binding of serum 1a to linear peptides of protein X1 of SARS-CoV Urbani", "setting": "[3]", "value": 0.6}, {"measurement": "Binding of serum 1a to looped/cyclic peptides of protein X1 of SARS-CoV Urbani", "setting": "[3]", "value": 0.4}, {"measurement": "Binding of serum 1b to linear peptides of protein X1 of SARS-CoV Urbani", "setting": "[3]", "value": 0.5}, {"measurement": "Binding of serum 1b to looped/cyclic peptides of protein X1 of SARS-CoV Urbani", "setting": "[3]", "value": 0.3}, {"measurement": "Binding of serum 2 to linear peptides of protein X1 of SARS-CoV Urbani", "setting": "[3]", "value": 0.6}, {"measurement": "Binding of serum 2 to looped/cyclic peptides of protein X1 of SARS-CoV Urbani", "setting": "[3]", "value": 0.4}, {"measurement": "Binding of serum 6 to linear peptides of protein X1 of SARS-CoV Urbani", "setting": "[3]", "value": 0.5}, {"measurement": "Binding of serum 6 to looped/cyclic peptides of protein X1 of SARS-CoV Urbani", "setting": "[3]", "value": 0.2}, {"measurement": "Binding of serum 37 to linear peptides of protein X1 of SARS-CoV Urbani", "setting": "[3]", "value": 0.7}, {"measurement": "Binding of serum 37 to looped/cyclic peptides of protein X1 of SARS-CoV Urbani", "setting": "[3]", "value": 0.4}, {"measurement": "Binding of serum 62 to linear peptides of protein X1 of SARS-CoV Urbani", "setting": "[3]", "value": 0.6}, {"measurement": "Binding of serum 62 to looped/cyclic peptides of protein X1 of SARS-CoV Urbani", "setting": "[3]", "value": 0.3}, {"measurement": "Binding of serum London to linear peptides of protein X1 of SARS-CoV Urbani", "setting": "[3]", "value": 0.3}, {"measurement": "Binding of serum London to looped/cyclic peptides of protein X1 of SARS-CoV Urbani", "setting": "[3]", "value": 0.2}, {"measurement": "Binding of serum SARS-green to linear peptides of protein X1 of SARS-CoV Urbani", "setting": "[3]", "value": 0.4}, {"measurement": "Binding of serum SARS-green to looped/cyclic peptides of protein X1 of SARS-CoV Urbani", "setting": "[3]", "value": 0.2}, {"measurement": "Binding of serum SARS-yellow to linear peptides of protein X1 of SARS-CoV Urbani", "setting": "[3]", "value": 0.3}, {"measurement": "Binding of serum SARS-yellow to looped/cyclic peptides of protein X1 of SARS-CoV Urbani", "setting": "[3]", "value": 0.1}]}
{"sequence": "QIQLSLLKVTAFQHQ", "values": [{"measurement": "Binding of a rabbit serum to linear peptides", "setting": "[1]", "value": 0.6}, {"measurement": "Binding of a rabbit serum to looped peptides", "setting": "[1]", "value": 0.5}, {"measurement": "Binding of Control Serum Blood-Bank to Looped peptides", "setting": "[2]", "value": 0.6}, {"measurement": "Binding of Control serum Blood-bank to linear peptides", "setting": "[2]", "value": 0.4}, {"measurement": "Binding of Control serum LUMC to linear peptides", "setting": "[2]", "value": 0.7}, {"measurement": "Binding of Control serum LUMC to looped peptides", "setting": "[2]", "value": 0.6}, {"measurement": "Binding of serum 1a to linear peptides of protein X2", "setting": "[3]", "value": 0.5}, {"measurement": "Binding of serum 1a to looped/cyclic peptides of protein X2 of SARS-CoV Urbani", "setting": "[3]", "value": 0.6}, {"measurement": "Binding of serum 1b to linear peptides of protein X2", "setting": "[3]", "value": 0.4}, {"measurement": "Binding of serum 1b to looped/cyclic peptides of protein X2 of SARS-CoV Urbani", "setting": "[3]", "value": 0.5}, {"measurement": "Binding of serum 2 to linear peptides of protein X2", "setting": "[3]", "value": 0.4}, {"measurement": "Binding of serum 2 to looped/cyclic peptides of protein X2 of SARS-CoV Urbani", "setting": "[3]", "value": 0.4}, {"measurement": "Binding of serum 6 to linear peptides of protein X2", "setting": "[3]", "value": 0.4}, {"measurement": "Binding of serum 6 to looped/cyclic peptides of protein X2 of SARS-CoV Urbani", "setting": "[3]", "value": 0.6}, {"measurement": "Binding of serum 37 to linear peptides of protein X2", "setting": "[3]", "value": 0.6}, {"measurement": "Binding of serum 37 to looped/cyclic peptides of protein X2 of SARS-CoV Urbani", "setting": "[3]", "value": 0.4}, {"measurement": "Binding of serum 62 to linear peptides of protein X2", "setting": "[3]", "value": 0.3}, {"measurement": "Binding of serum 62 to looped/cyclic peptides of protein X2 of SARS-CoV Urbani", "setting": "[3]", "value": 0.6}, {"measurement": "Binding of serum London to linear peptides of protein X2", "setting": "[3]", "value": 0.3}, {"measurement": "Binding of serum London to looped/cyclic peptides of protein X2 of SARS-CoV Urbani", "setting": "[3]", "value": 0.7}, {"measurement": "Binding of serum SARS-green to linear peptides of protein X2", "setting": "[3]", "value": 0.2}, {"measurement": "Binding of serum SARS-green to looped/cyclic peptides of protein X2 of SARS-CoV Urbani", "setting": "[3]", "value": 0.4}, {"measurement": "Binding of serum SARS-yellow to linear peptides of protein X2", "setting": "[3]", "value": 0.4}, {"measurement": "Binding of serum SARS-yellow to looped/cyclic peptides of protein X2 of SARS-CoV Urbani", "setting": "[3]", "value": 0.6}]}
